From patent publication US11306079B2, “3-(5-amino-pyrazin-2-yl)-benzenesulfonamide derivatives and related compounds as PI3K-gamma kinase inhibitors” (Incyte Corporation, priority 2017, dated 2022)
Structures can show the parent of a compound that is named as a salt.

What was measured:
[1] = molecular target: PI3Kγ (p110γ) Recombinant Human Protein (Homo sapiens (Human), UniProt P48736); experiment: PI3K-γ Scintillation Proximity Assay; type: biochemical; conditions: 20 μM PIP2, 2 μM ATP, 13 nM PI3Kγ, 120 min, room temperature
Sequence of PI3Kγ (p110γ) Recombinant Human Protein (P48736 whole entry): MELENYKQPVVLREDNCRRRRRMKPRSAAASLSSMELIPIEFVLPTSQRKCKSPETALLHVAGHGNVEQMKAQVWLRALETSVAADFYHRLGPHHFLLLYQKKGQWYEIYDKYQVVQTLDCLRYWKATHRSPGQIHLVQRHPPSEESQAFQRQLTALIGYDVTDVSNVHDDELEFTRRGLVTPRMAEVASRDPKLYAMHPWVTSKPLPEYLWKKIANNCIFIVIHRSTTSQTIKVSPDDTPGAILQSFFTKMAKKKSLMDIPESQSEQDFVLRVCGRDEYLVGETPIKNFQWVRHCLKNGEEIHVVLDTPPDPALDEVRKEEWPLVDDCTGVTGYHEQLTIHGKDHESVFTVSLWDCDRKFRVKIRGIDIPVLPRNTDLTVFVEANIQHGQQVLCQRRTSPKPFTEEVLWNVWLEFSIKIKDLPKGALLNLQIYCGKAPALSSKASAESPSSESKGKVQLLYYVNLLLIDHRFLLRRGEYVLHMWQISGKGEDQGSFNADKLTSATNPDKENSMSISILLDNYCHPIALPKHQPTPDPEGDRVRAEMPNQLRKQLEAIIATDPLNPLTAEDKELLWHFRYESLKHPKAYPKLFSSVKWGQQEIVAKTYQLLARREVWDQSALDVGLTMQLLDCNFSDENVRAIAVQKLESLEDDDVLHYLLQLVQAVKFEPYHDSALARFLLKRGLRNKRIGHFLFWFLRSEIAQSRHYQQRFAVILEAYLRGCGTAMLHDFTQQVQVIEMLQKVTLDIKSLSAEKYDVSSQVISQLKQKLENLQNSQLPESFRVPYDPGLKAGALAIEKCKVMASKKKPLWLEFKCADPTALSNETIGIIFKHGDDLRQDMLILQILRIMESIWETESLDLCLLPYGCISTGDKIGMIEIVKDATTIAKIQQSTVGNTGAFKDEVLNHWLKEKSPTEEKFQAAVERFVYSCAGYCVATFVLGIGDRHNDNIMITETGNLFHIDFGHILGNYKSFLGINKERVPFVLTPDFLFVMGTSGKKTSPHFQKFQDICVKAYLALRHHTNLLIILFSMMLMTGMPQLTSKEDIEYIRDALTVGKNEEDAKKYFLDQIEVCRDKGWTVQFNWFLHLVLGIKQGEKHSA
From the text: Example B. PI3K-γ Scintillation Proximity Assay
(§1) [γ-^33P]ATP (10 mCi/mL) and Wheat Germ Agglutinin (WGA) YSi SPA Scintillation Beads was purchased from Perkin-Elmer (Waltham, Mass.). Lipid kinase substrate, D-myo-Phosphatidylinositol 4,5-bisphosphate (PtdIns(4,5)P2)D (+)-sn-1,2-di-O-octanoylglyceryl, 3-O-phospho linked (PIP2), CAS 204858-53-7, was purchased from Echelon Biosciences (Salt Lake City, Utah). PI3Kγ (p110γ) Recombinant Human Protein was purchased from Life technology (Grand island, NY), ATP, MgCl2, DTT, EDTA, MOPS and CHAPS were purchased from Sigma-Aldrich (St. Louis, Mo.).
(§2) The kinase reaction was conducted in polystyrene 384-well Greiner Bio-one white plate from Thermo Fisher Scientific in a final volume of 25 μL. Inhibitors were first diluted serially in DMSO and added to the plate wells before the addition of other reaction components. The final concentration of DMSO in the assay was 2%. The PI3Kγ assay was carried out at room temperature in 20 mM MOPS, pH 6.7, 10 mM MgCl2, 5 mM DTT and CHAPS 0.03%. Reactions were initiated by the addition of ATP, the final reaction mixture consisted of 20 μM PIP2, 2 μM ATP, 0.5 μCi [γ-^33P] ATP, 13 nM PI3Kγ. Reactions were incubated for 120 min and terminated by the addition of 40 μL SPA beads suspended in quench buffer: 163 mM potassium phosphate pH 7.8, 20% glycerol, 25 mM EDTA. The final concentration of SPA beads is 1.0 mg/mL. After the plate sealing, plates were shaken overnight at room temperature and centrifuged at 1500 rpm for 10 min, the radioactivity of the product was determined by scintillation counting on Topcount (Perkin-Elmer). IC50 determination was performed by fitting the curve of percent of the solvent control activity versus the log of the inhibitor concentration using the GraphPad Prism 6.0 software.

[2] = molecular target: PI3Kδ (p110δ/p85α) Recombinant Human Protein (Homo sapiens (Human), UniProt O00329); experiment: PI3Kδ Scintillation Proximity Assay; type: biochemical; conditions: 20 μM PIP2, 2 μM ATP, 3.4 nM PI3Kδ, 120 min, room temperature
Sequence of PI3Kδ (p110δ/p85α) Recombinant Human Protein (O00329 whole entry): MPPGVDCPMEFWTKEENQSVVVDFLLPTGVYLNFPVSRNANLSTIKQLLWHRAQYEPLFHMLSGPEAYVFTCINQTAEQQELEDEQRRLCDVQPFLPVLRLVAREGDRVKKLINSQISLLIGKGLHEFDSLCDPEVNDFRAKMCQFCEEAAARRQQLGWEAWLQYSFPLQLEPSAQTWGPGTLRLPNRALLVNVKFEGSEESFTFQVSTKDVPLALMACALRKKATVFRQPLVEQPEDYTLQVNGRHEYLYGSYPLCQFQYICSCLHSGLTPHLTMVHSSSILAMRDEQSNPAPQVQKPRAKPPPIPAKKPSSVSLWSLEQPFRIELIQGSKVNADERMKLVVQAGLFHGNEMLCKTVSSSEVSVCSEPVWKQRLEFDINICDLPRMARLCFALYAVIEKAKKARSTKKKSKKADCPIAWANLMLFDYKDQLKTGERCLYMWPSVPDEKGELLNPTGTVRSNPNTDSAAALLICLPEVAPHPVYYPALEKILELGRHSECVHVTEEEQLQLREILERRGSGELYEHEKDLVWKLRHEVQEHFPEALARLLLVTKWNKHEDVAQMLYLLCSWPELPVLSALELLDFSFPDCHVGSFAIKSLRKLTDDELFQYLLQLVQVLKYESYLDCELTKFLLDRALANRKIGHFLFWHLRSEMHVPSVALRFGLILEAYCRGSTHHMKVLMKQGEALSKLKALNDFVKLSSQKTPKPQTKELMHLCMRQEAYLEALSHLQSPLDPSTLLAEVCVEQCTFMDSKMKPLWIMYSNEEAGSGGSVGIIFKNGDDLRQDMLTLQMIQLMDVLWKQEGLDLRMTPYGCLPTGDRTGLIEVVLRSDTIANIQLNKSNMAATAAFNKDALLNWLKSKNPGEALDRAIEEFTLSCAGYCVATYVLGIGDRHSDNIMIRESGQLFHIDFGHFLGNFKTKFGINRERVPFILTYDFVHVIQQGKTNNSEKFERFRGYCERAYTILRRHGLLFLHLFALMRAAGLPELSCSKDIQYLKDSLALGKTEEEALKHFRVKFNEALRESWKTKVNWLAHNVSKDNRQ
Sequence of PI3Kδ (p110δ/p85α) Recombinant Human Protein (P27986 whole entry partner): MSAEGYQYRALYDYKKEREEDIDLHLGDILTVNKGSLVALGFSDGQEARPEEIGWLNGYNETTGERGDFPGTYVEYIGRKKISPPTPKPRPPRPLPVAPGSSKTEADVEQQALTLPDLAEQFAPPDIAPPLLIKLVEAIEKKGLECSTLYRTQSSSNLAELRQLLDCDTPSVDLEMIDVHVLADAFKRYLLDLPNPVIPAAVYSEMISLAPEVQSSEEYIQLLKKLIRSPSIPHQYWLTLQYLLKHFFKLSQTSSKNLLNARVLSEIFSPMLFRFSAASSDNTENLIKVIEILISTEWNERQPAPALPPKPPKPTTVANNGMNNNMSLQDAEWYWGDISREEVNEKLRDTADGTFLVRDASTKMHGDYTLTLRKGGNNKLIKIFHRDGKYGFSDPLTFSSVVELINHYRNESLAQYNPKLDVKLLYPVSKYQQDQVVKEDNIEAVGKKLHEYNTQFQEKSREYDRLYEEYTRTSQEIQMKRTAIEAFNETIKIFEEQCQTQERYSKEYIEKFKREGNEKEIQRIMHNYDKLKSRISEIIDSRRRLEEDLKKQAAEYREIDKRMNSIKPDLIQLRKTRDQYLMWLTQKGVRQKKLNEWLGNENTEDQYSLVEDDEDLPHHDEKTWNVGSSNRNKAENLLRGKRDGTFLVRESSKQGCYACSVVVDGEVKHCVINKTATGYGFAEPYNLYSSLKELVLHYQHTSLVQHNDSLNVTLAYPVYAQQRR
From the text: Example C. PI3Kδ Scintillation Proximity Assay
as §1, with “PI3Kδ (p110δ/p85α)” for “PI3Kγ (p110γ)”, “Eurofins (St Charles, Mo.).” for “Life technology (Grand island, NY),”
as §2, with “PI3Kδ” for “PI3Kγ”, “3.4” for “13”, “PI3Kδ.” for “PI3Kγ.”

[3] = tested on: Phosphorylated Ribosomal Protein S6 (RPS6) in THP-1 cells; experiment: THP-1 RPS6 ELISA Assay; type: cell-based; conditions: Homo sapiens; serum starved THP-1 cells, 2 hours with compound, 10 nM MCP-1 for 15 minutes, Phospho-RPS6 ELISA; read-out: PI3Kγ_THP1_RPS6_ELISA IC50
Protocol: Example A. THP-1 RPS6 ELISA Assay
To measure the Phosphorylated Ribosomal Protein S6 (RPS6) in cell lysates, THP-1 cells (Human Acute Monocytic Leukemia) are purchased from ATCC (Manassas, Va.) and maintained in RPMI with 10% FBS (Gibco/Life Technologies, Carlsbad, Calif.). For the assay, THP-1 cells are serum starved overnight in RPMI, then plated in RPMI (2×10^5 cells/well in 90 μL) into 96-well flat-bottom tissue culture treated plates (Corning, Corning, N.Y.), in the presence or absence of a concentration range of test compounds. Covered plates are incubated for 2 hours at 37° C., 5% CO2 then treated with or without 10 nM MCP-1 (MYBioSource, San Diego, Calif.) for 15 minutes at 37° C., 5% CO2. Plates are centrifuged at 1600 RPM and supernatants are removed. Cells are lysed in Lysis Buffer (Cell Signaling, Danvers, Mass.) with Protease Inhibitor (Calbiochem/EMD, Germany), PMSF (Sigma, St Louis Mo.), HALTS (Thermo Fisher, Rockford, Ill.) for 30 min on wet ice. Cell lysates are frozen at −80° C. before testing. The lysates are tested in the Human/Mouse/Rat Phospho-RPS6 ELISA (R&D Systems, Inc. Minn, Minn.). The plate is measured using a microplate reader (SpectraMax M5—Molecular Devices, LLC Sunnyvale, Calif.) set to 450 nm with a wavelength correction of 540. IC50 determination is performed by fitting the curve of inhibitor percent inhibition versus the log of the inhibitor concentration using the GraphPad Prism 5.0 software.

Row | SMILES | IC50 [1] | IC50 [2] | IC50 [3]
1 | Cc1ncc(-c2nc(-c3cc(S(=O)(=O)NC45CCC(C#N)(C4)C5)ccc3C)cnc2N)s1 [Example 2, 3-(5-Amino-6-(2-methylthiazol-5-yl)pyrazin-2-yl)-N-(4-cyanobicyclo[2.1.1]hexan-1-yl)-4-methylbenzenesulfonamide trifluoroacetate salt] | ≤ 0.1 µM | ≤ 0.1 µM | ≤ 0.1 µM
2 | [2H]C([2H])([2H])c1ccc(S(=O)(=O)NC23CC(CO)(C2)C3)cc1-c1cnc(N)c(-c2ccncn2)n1 [Example 81, 3-(5-Amino-6-(pyrimidin-4-yl)pyrazin-2-yl)-N-(3-(hydroxymethyl)bicyclo[1.1.1]pentan-1-yl)-4-(methyl-d3)benzenesulfonamide trifluoroacetate salt] | ≤ 0.1 µM | ≤ 0.1 µM | ≤ 0.5 µM
3 | [2H]C([2H])([2H])c1ccc(S(=O)(=O)NC23CCC(O)(C2)C3)cc1-c1cnc(N)c(-c2ccnc(SC)n2)n1 [Example 77, 3-(5-Amino-6-(2-(methylthio)pyrimidin-4-yl)pyrazin-2-yl)-N-(4-hydroxybicyclo[2.1.1]hexan-1-yl)-4-(methyl-d3)benzenesulfonamide] | ≤ 0.1 µM | ≤ 0.1 µM | ≤ 0.1 µM
4 | Cc1ccc(S(=O)(=O)NC23CCC(O)(C2)C3)cc1-c1cnc(N)c(-n2cncn2)n1 [Example 30, 3-(5-Amino-6-(1H-1,2,4-triazol-1-yl)pyrazin-2-yl)-N-(4-hydroxybicyclo[2.1.1]hexan-1-yl)-4-methylbenzenesulfonamide Trifluoroacetate Salt] | ≤ 0.1 µM | ≤ 0.5 µM | ≤ 0.5 µM
5 | Cc1ccc(S(=O)(=O)NC23COC(CO)(C2)C3)cc1-c1cnc(N)c(-n2cncn2)n1 [Example 27, 3-(5-Amino-6-(1H-1,2,4-triazol-1-yl)pyrazin-2-yl)-N-(1-(hydroxymethyl)-2-oxabicyclo[2.1.1]hexan-4-yl)-4-methylbenzenesulfonamide trifluoroacetate salt] | ≤ 0.1 µM | ≤ 0.5 µM | ≤ 0.5 µM
6 | [2H]C([2H])([2H])c1ccc(S(=O)(=O)NC23CCC(O)(C2)C3)cc1-c1cnc(N)c(-c2ccncn2)n1 [Example 80, 3-(5-Amino-6-(pyrimidin-4-yl)pyrazin-2-yl)-N-(4-hydroxybicyclo[2.1.1]hexan-1-yl)-4-(methyl-d3)benzenesulfonamide trifluoroacetate salt] | ≤ 0.1 µM | ≤ 0.1 µM | ≤ 0.1 µM
7 | Cc1ccc(S(=O)(=O)NC23CCC(CO)(C2)C3)cc1-c1cnc(N)c(-n2cncn2)n1 [Example 25, 3-(5-Amino-6-(1H-1,2,4-triazol-1-yl)pyrazin-2-yl)-N-(4-(hydroxymethyl)bicyclo[2.1.1]hexan-1-yl)-4-methylbenzenesulfonamide trifluoroacetate salt] | ≤ 0.1 µM | ≤ 0.1 µM | ≤ 0.1 µM
8 | CC(=O)NC12CC(NS(=O)(=O)c3ccc(C)c(-c4cnc(N)c(-n5cncn5)n4)c3)(C1)C2 [Example 40, N-(3-(3-(5-Amino-6-(1H-1,2,4-triazol-1-yl)pyrazin-2-yl)-4-methylphenylsulfonamido)bicyclo[1.1.1]pentan-1-yl)acetamide Trifluoroacetate Salt] | ≤ 0.1 µM | ≤ 0.5 µM | ≤ 1 µM
9 | Cc1ccc(S(=O)(=O)NC23CCC(O)(CC2)C3)cc1-c1cnc(N)c(-n2cncn2)n1 [Example 26, 3-(5-Amino-6-(1H-1,2,4-triazol-1-yl)pyrazin-2-yl)-N-(4-hydroxybicyclo[2.2.1]heptan-1-yl)-4-methylbenzenesulfonamide trifluoroacetate salt] | ≤ 0.1 µM | ≤ 0.1 µM | ≤ 0.1 µM
10 | Cc1ccc(S(=O)(=O)NC23CCC(O)(CC2)C3)cc1-c1cnc(N)c(-c2ccncc2)n1 [Example 17, 3-(5-Amino-6-(pyridin-4-yl)pyrazin-2-yl)-N-(4-hydroxybicyclo[2.2.1]heptan-1-yl)-4-methylbenzenesulfonamide Trifluoroacetate Salt] | ≤ 0.1 µM | ≤ 0.5 µM | ≤ 0.5 µM
11 | CNC(=O)OCC12CC(NS(=O)(=O)c3ccc(C)c(-c4cnc(N)c(-n5cncn5)n4)c3)(C1)C2 [Example 31, (3-(3-(5-Amino-6-(1H-1,2,4-triazol-1-yl)pyrazin-2-yl)-4-methylphenylsulfonamido)bicyclo[1.1.1]pentan-1-yl)methyl Methylcarbamate Trifluoroacetate Salt] | ≤ 0.1 µM | ≤ 0.5 µM | ≤ 0.5 µM
12 | [2H]C([2H])([2H])c1ccc(S(=O)(=O)NC23CC(CO)(C2)C3)cc1-c1cnc(N)c(-n2cncn2)n1 [Example 49, 3-(5-Amino-6-(1H-1,2,4-triazol-1-yl)pyrazin-2-yl)-N-(3-(hydroxymethyl)bicyclo[1.1.1]pentan-1-yl)-4-(methyl-d3)benzenesulfonamide Trifluoroacetate Salt] | ≤ 0.1 µM | ≤ 0.1 µM | ≤ 0.5 µM
13 | Cc1ccc(S(=O)(=O)NC23CCC(CO)(CC2)OC3)cc1-c1cnc(N)c(-c2ccnc(C(F)(F)F)c2)n1 [Example 21, 3-(5-Amino-6-(2-(trifluoromethyl)pyridin-4-yl)pyrazin-2-yl)-N-(1-(hydroxymethyl)-2-oxabicyclo[2.2.2]octan-4-yl)-4-methylbenzenesulfonamide trifluoroacetate salt] | ≤ 0.1 µM | ≤ 0.5 µM | ≤ 0.5 µM
14 | Cc1ccc(S(=O)(=O)NC23CC(C(=O)N4CCC4)(C2)C3)cc1-c1cnc(N)c(-n2cncn2)n1 [Example 34, 3-(5-Amino-6-(1H-1,2,4-triazol-1-yl)pyrazin-2-yl)-N-(3-(azetidine-1-carbonyl)bicyclo[1.1.1]pentan-1-yl)-4-methylbenzenesulfonamide trifluoroacetate salt] | ≤ 0.1 µM | ≤ 0.5 µM | ≥ 1 µM
